Experiments:
[1] = tested on: plasma fibrinogen; test: Fibrinogen levels in rats (electro immunoassay); assay type: in vivo, rat; settings: male Sprague-Dawley rats, 100 mg/kg/day oral, 14 days
Method: Fifty-Six male Sprague-Dawley rats were obtained from Charles River Laboratories. All animals were allowed normal rat chow (Ralston-Purina) and water ad libitum in temperature-controlled rooms, under a 12-hour light, 12-hour dark cycle beginning with lights on at 6 AM. Rats were distributed to 7 groups of 8 rats per group. […] Control animals received vehicle alone. […] CI-719 is gemfibrozil. […] The plasma fibrinogen plasma levels were determined by electro immunoassay. […] Data are shown in FIG. 12 as mean±SEM of as percent of control fibrinogen levels. *p<0.001, two-sided unpaired t-test, compared to control.

[2] = tested on: cholesterol and triglyceride synthesis; test: Inhibition of plasma and hepatic cholesterol and triglyceride synthesis in apoB100/Lp(a) mice; assay type: in vivo, mouse
Method: The apoB100/Lp(a) (cross of mice transgenic for human apoB100 and human apo(a)) mice) were obtained from Charles River. There were 8 animals per treatment group. […] Mice were acclimated for a minimum of 7 days to a reverse 12 hour light/12 hour dark cycle prior to administration of the first dose of test drug or vehicle. […] Test drugs and vehicle were given once daily. Thirty minutes after the eighth dose, 12.5 μCi [^14C] sodium acetate was administered. […] Individual plasma samples were acquired by placing whole blood samples into EDTA loaded centrifuge tubes and centrifuged. Plasma was transferred to new tubes and stored at −20° C. until assayed for [^14C] labeled cholesterol. Liver samples were flash frozen in liquid nitrogen and stored at −80° C. until assayed for [^14C] labeled cholesterol and triglycerides. Assay for plasma [^14C] labeled cholesterol. […] Additionally, 0.025 μCi […] (Perkin Elmer Life Sciences Inc. Boston, Mass.) was added to each sample, and to 2 or 3 spike controls in 7-mL scintillation vials, as an extraction internal standard. […] Samples were vortexed and saponified at 75° C. for 1 hour. After the samples cooled […] [^14C] labeled cholesterol was extracted with 2.5 mL petroleum ether per sample and shaken for 10 minutes, and then centrifuged for 10 minutes at 0° C. […] Each sample was then dissolved in 0.25 mL of 2 parts chloroform to 1 part per methanol by sonication. Five mL scintillant was added to each sample and the spike controls for direct [^3H] and [^14C] […] per minute (DPM) recording using a Packard 2500TR Tri-Carb Liquid Scintillation Analyzer. […] Assay for liver [^14C] labeled cholesterol and triglycerides. Frozen liver samples were kept on dry ice during sample weighing procedures and assay preparations. Each sample was homogenized in a solution of ice-cold methanol;0.5 N acetic acid. […] Samples were then vortexed and centrifuged for 20 minutes at 3000 rpm at room temperature to separate the phases. The lower chloroform layer was transferred to new vials. The remaining upper aqueous phase was extracted in like manner with 15 mL chloroform 2 more times. […] The aqueous phase was discarded and the chloroform phase was washed 2 times in like manner with 15 mL 1 part methanol to 1 part water, discarding the aqueous phase. The chloroform samples were evaporated under nitrogen gas, and resuspended in 600 μL chloroform and 30 μL removed for scintillation counting. Sample volumes were adjusted for corrected percent recovery and a calculated volume to load based on total liver weight. Calculated volumes were spotted onto TLC plates and dried in an 80° C. oven. After the plates had cooled to room temperature, they were developed in 102 mL isooctane:diethyl ether:glacial acetic acid, 75:25:2, respectively. Plates were dried in an 80° C. oven and allowed to cool to room temperature, wrapped in plastic wrap, and exposed to the phosphorimager screen. Imagequant software was used to quantitate cholesterol and triglyceride bands.

[3] = tested on: STAM model of non-alcoholic steatohepatitis (NASH)
Method: Telmisartan (Micardis®) was purchased from Boehringer Ingelheim GmbH (Germany) and dissolved in pure water.
Telmisartan was administered at a dose of 10 mg/kg once daily.
Measurement of whole blood and plasma biochemistry: Eight-hour fasting blood samples were collected from facial vein at 3 days prior to termination.
Eight-hour fasting blood glucose was measured in whole blood using Life Check (EIDIA Co. Ltd., Japan). For plasma biochemistry, eight-hour fasting blood was collected in polypropylene tubes with anticoagulant (Novo-Heparin, Mochida Pharmaceutical, Japan) and centrifuged at 1,000×g for 15 minutes at 4° C. The supernatant was collected and stored at −80° C. until use. Plasma insulin levels were quantified by Ultra Sensitive Mouse Insulin ELISA kit (Morinaga Institute of Biological Science, Inc., Japan).
On the day of termination, non-fasting blood glucose was measured in whole blood using Life Check. For plasma biochemistry, non-fasting blood was collected in polypropylene tubes with anticoagulant (Novo-Heparin) and centrifuged at 1,000×g for 15 minutes at 4° C. The supernatant was collected and stored at −80° C. until use. Plasma ALT, AST, ALP, GGT, BUN, creatinine and total bilirubin levels were measured by FUJI DRI-CHEM 7000 (Fujifilm Corporation, Japan). Plasma ketone body levels were quantified by EnzyChrom™ Ketone Body Assay Kit (BioAssay Systems, USA). […]
Histological analyses: For HE staining, sections were cut from paraffin blocks of liver tissue prefixed in Bouin's solution and stained with Lillie-Mayer's Hematoxylin (Muto Pure Chemicals Co., Ltd., Japan) and eosin solution (Wako Pure Chemical Industries). […] To visualize collagen deposition, Bouin's fixed liver sections were stained using picro-Sirius red solution (Waldeck, Germany). […]
Statistical analyses were performed using Bonferroni Multiple Comparison Test on GraphPad Prism 6 (GraphPad Software Inc., USA). […] Results were expressed as mean±SD.
The viability, clinical signs and behavior were monitored daily. Body weight was recorded before the treatment. […] The animals were sacrificed by exsanguination through direct cardiac puncture under isoflurane anesthesia (Pfizer Inc.) at 9 weeks of age.

[4] = 3 mg/kg oral once daily, 8 doses
[5] = STAM mice, telmisartan 10 mg/kg PO QD, Day 18, 8 hours of fasting
[6] = STAM mice, telmisartan 10 mg/kg PO QD, termination (Day 21)
[7] = telmisartan 10 mg/kg PO QD, n = 7

For `Cc1ccc(C)c(OCCCC(C)(C)C(=O)O)c1` [Gemfibrozil, gemfibrozil, reference compound], the “reduction in plasma fibrinogen levels compared with control” value [1] was 31%.

In the case of `CCC(C)(C)C(=O)O[C@H]1C[C@@H](C)C=C2C=C[C@H](C)[C@H](CC[C@@H]3C[C@@H](O)CC(=O)O3)[C@H]21` [Simvastatin, simvastatin, reference compound], the “inhibition of cholesterol synthesis as measured in plasma” value ([2]; 3 mg/kg) is reported as 59%, the “lowering of cholesterol synthesis in liver tissue” value ([2]; 3 mg/kg) is reported as 82% and the “hepatic Cholesterol synthesis ([14C] sodium acetate), % Change from Vehicle” value [2, 4] is reported as −82 ± 8 %. For the same molecule, the “hepatic Triglycerides synthesis ([14C] sodium acetate), % Change from Vehicle” value [2, 4] was 4.0 ± 15%.

`CCCc1nc2c(C)cc(-c3nc4ccccc4n3C)cc2n1Cc1ccc(-c2ccccc2C(=O)O)cc1` [Telmisartan, reference compound] was tested, and the “Sirius Red positive area (mean ± SD)” value ([3]; STAM mice, telmisartan 10 mg/kg PO QD 6-9 wks) was 0.48 ± 0.09%, the “NAFLD Activity score, NAS (mean ± SD)” value ([3]; STAM mice, telmisartan 10 mg/kg PO QD 6-9 wks, n = 7) was 2.6 ± 1.0 and the “mortality during the treatment period” value ([3]; STAM mice, telmisartan 10 mg/kg PO QD, before reaching Day 21) was “one mouse was found dead”. The “Fasting blood glucose (mean ± SD)” value [3, 5] was 742 ± 90 mg/dL, the “Plasma insulin (mean ± SD)” value [3, 5] was 0.16 ± 0.04 ng/mL and the “Liver hydroxyl-proline (mean ± SD)” value [3, 6] was 0.91 ± 0.21 μg/mg total protein. The “Liver triglyceride (mean ± SD)” value [3, 6] was 31.7 ± 6.4 mg/g liver, the “Non-fasting blood glucose (mean ± SD)” value [3, 6] was 856 ± 62 mg/dL and the “Plasma ALT (mean ± SD)” value [3, 6] was 39 ± 15 U/L. The “Plasma AST (mean ± SD)” value [3, 6] was 121 ± 38 U/L, the “Plasma ketone body (mean ± SD)” value [3, 6] was 8.11 ± 3.27 mM and the “number of mice with Hepatocyte ballooning score 0 (None)” value [3, 7] was 2. The “number of mice with Hepatocyte ballooning score 1 (Few balloon cells)” value [3, 7] was 4, the “number of mice with Hepatocyte ballooning score 2 (Many cells/prominent ballooning)” value [3, 7] was 1 and the “number of mice with Lobular inflammation score 0 (No foci)” value [3, 7] was 2. For the same molecule, the “number of mice with Lobular inflammation score 1 (<2 foci/200x)” value [3, 7] was 4, the “number of mice with Lobular inflammation score 2 (2-4 foci/200x)” value [3, 7] was 1 and the “number of mice with Steatosis score 0 (<5%)” value [3, 7] was 1. The “number of mice with Steatosis score 1 (5-33%)” value [3, 7] was 6.
